Laboratory results from US5214153A, “Actinoplanes transformation process anti-hypertensive compound and method of use thereas” (Merck & Co., Inc., priority 1992, dated 1993).

Biological target: T1, Angiotensin II (A II) receptor (Oryctolagus cuniculus, UniProt P34976)
T1 construct: 125I-Sar1Ile8-angiotensin II displacement
T1 sequence (P34976 1-359): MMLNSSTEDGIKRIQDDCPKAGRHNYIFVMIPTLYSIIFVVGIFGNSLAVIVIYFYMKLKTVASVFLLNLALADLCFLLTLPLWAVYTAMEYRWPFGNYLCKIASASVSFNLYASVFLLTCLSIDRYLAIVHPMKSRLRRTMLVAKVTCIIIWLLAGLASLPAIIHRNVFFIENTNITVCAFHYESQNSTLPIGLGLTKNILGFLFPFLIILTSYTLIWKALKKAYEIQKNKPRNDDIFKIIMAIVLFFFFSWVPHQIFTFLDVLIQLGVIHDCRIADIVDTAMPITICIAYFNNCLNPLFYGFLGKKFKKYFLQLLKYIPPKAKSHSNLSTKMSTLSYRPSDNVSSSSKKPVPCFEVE
Assay: Receptor Binding Assay Using Rabbit Aortae Membrane Preparation ("IC50" assay)
Method: This assay is also referred to herein as the "IC50 " assay.
Receptor Binding Assay Using Rabbit Aortae Membrane Preparation
Three frozen rabbit aortae (obtained from Pel-Freeze Biologicals) were suspended in 5 mM Tris-0.25M Sucrose, pH 7.4 buffer (50 mL) homogenized, and then centrifuged. The mixture was filtered through a cheesecloth and the supernatant was centrifuged for 30 minutes at 20,000 rpm at 4° C. The pellet thus obtained was resuspended in 30 mL of 50 mM Tris-5 mM MgCl2 buffer containing 0.2% Bovine Serum Albumin and 0.2 mg/mL Bacitratin and the suspension was used for 100 assay tubes. Samples tested for screening were done in duplicate. To the membrane preparation (0.25 mL) there was added ^125 I-Sar^1 Ile^8 -angiotensin II [obtained from New England Nuclear] (10 uL; 20,000 cpm) with or without the test sample and the mixture was incubated at 37° C. for 90 minutes. The mixture was then diluted with ice-cold 50 mM Tris-0.9% NaCl, pH 7.4 (4 mL) and filtered through a glass fiber filter (GF/B Whatman 2.4" diameter). The filter was soaked in scintillation cocktail (10 mL) and counted for radioactivity using Packard 2660 Tricarb liquid scintillation counter. […]

A II antagonist activity by the IC50 assay: exhibits A II antagonist activity
SMILES: CC(O)CCc1nc(Cl)c(CO)n1Cc1ccc(-c2ccccc2-c2nnn[nH]2)cc1 (stereo not shown) [compound (I)]
